In patent US10244779B2, “Method of improving stability of sweet enhancer and composition containing stabilized sweet enhancer” (SENOMYX, INC., priority 2010, dated 2019):
One block for each molecule: values may come before it.

Legend:
[1] = Photostability test of sweet enhancers with/without photostabilizers in Q-Sun Xenon Test Chamber
Experimental: Aqueous buffer solution at pH 7.1 contains 50 mM potassium dihydrogen phosphate and ˜32 mM sodium hydroxide (solutions of 1.0 M hydrochloric acid and 1.0 M sodium hydroxide are used to adjust pH). Aqueous buffer solution at pH 4.0 contains 50 mM citric acidmonosodium salt and ˜7.4 mM sodium hydroxide (solutions of 1.0 M hydrochloric acid and 1.0 M sodium hydroxide are used to adjust pH). Aqueous buffer solution at pH 2.8 contains 50 mM citric acid and ˜16 mM sodium hydroxide (solutions of 1.0 M hydrochloric acid and 1.0 M sodium hydroxide are used to adjust pH).
The stock solutions of the test compounds at 25 mM are made by dissolving the compounds in dimethyl sulfoxide. The solutions of the stabilizers are made by dissolving the materials in the aqueous buffers. The stock solutions are then diluted to 25 μM with the stabilizer solutions to prepare the test solution and 4-mL aliquots of the solutions are transferred to 20-mL clear glass vial for testing.
Accelerated photodegradation was studied using a Q-Sun Xenon Test Chamber (Q-Lab Model No. Xe-1-SC) at an irradiance setting of 350 mW/m^2 at 340 nm and temperature of 25 degrees Celsius. To put this in perspective, 24 hours of constant Q-Sun irradiation at these settings is approximately equivalent to 12.4 days of direct sunlight in the southwestern United States. At 0, 1, 2, 4, and 6 hours from the beginning of the radiation, a 0.4-mL aliquot from each vial is pippeted out to a 1-mL glass insert for analysis.
The samples are analyzed using an Agilent 1100 LC/MSD equipped with a quaternary pump and a diode-array detector (DAD). The peak areas from the MSD chromatograms are used for quantitation, and the photostability is shown by plotting the percentages of the test compound which remains intact at all time points. The peak areas from the DAD chromatograms are used for quantitation for stabilizers with concentration at 250 uM or higher. The instrument conditions are listed below. • Column: YMC ODS AQ 3 um, 4.0×23 mm • Column Temperature: Room temperature • Auto-sampler Temperature: Room temperature • Mobile Phase A: Water • Mobile Phase B: Methanol • Mobile Phase C: 1% Formic Acid • Gradient: % C is constant at 5%; % B from 5% to 95% in 2 min, then back to 5% at 2.1 min, and then held at 5% until 3.25 min; flow rate is 2 mL/min • Injection volume: 10 uL • Data Collection time: 2.75 minutes • MSD ion source: APCI • MSD Signal settings: Positive, selected ion monitoring (SIM) at the mass of the expected molecular ions. • UV detection wavelength: 230 nm. • MSD detection start time: 0.5 min
FIGS. 2 and 3 illustrate the photostability study of Compounds A and B under these condition: Direct sunlight was modeled using a Q-Sun Xenon Test Chamber (Q-Lab Model No. Xe-1-SC) at an irradiance setting of 350 mW/m^2 @340 nm, 25° C. Test samples were irradiated in the Q-Sun at these settings in pH 2.8 buffer with/without Compounds A and B in the presence/absence of the photo-stabilizers A (chlorogenic acid) and B (rutin, a.k.a. quercetin-3-rutinoside).
Direct sunlight was modeled using a Q-Sun Xenon Test Chamber (Q-Lab Model No. Xe-1-SC) at an irradiance setting of 350 mW/m^2 @340 nm, 25° C. Test samples were irradiated in the Q-Sun at these settings in pH 2.8 buffer with Compound A in the presence/absence of the photo-stabilizers. […] Direct sunlight was modeled using a Q-Sun Xenon Test Chamber (Q-Lab Model No. Xe-1-SC) at an irradiance setting of 350 mW/m^2 @340 nm, 25° C. Test samples were irradiated in the Q-Sun at these settings in pH 2.8 buffer with 25 μM of Compound A in the presence/absence of the photo-stabilizers at a concentration of 100 ppm. […] Direct sunlight was modeled using a Q-Sun Xenon Test Chamber (Q-Lab Model No. Xe-1-SC) at an irradiance setting of 350 mW/m^2 @340 nm, 25° C. Test samples were irradiated in the Q-Sun at these settings in pH 2.8 buffer with sweet enhancer Compound E in the presence/absence of the photostabilizers.

[2] = % of 25 μM Compound A remaining with the cinnamic acid or coumarin derivative at 100 ppm (Table 4), pH 2.8 buffer, Q-Sun 350 mW/m^2 @340 nm, 25° C.

Structure (SMILES): CNC(=O)[C@H]1CC[C@H](Oc2cccc3nc(C)c(C(=O)O)c(N)c23)CC1 [Example 154, 4-amino-2-methyl-5-(((1,4)-trans-4-(methylcarbamoyl)cyclohexyl)oxy)quinoline-3-carboxylic Acid]
melting point: 195 to 198 °C

Structure (SMILES): Cc1nc2cccc(OCC(C)(C)NC(=O)CC(C)C)c2c(N)c1C(=O)O [Example 138, 4-amino-2-methyl-5-(2-methyl-2-(3-methylbutanamido)propoxy)quinoline-3-carboxylic Acid]
melting point: 195 to 198 °C

Structure (SMILES): Cc1nc2cccc(OCC(C)C)c2c(N)c1C(=O)O [Example 41, 4-amino-5-isobutoxy-2-methylquinoline-3-carboxylic Acid]
melting point: 203.7 °C

Structure (SMILES): Cc1nc2cccc(OCC(C)(C)NC(=O)C3CCC3)c2c(N)c1C(=O)O [Example 142, 4-amino-5-(2-(cyclobutanecarboxamido)-2-methylpropoxy)-2-methylquinoline-3-carboxylic Acid]
melting point: 186 to 190 °C

Structure (SMILES): Nc1nc(=O)[nH]c2sc3c(c12)CCOC3 [Example 159, 4-Amino-5,6-(5′,7′-dihydro-4′H-[2′,3′-c]pyrano)thieno[2,3-d]-pyrimidine-2(1H)-one]
melting point: > 260 °C

Structure (SMILES): COc1cc(/C=C/C(=O)O)ccc1O [ferulic acid]
% Remaining @ 1 hr ([1]; buffer, 1 h, 100 ppm, pH 2.8): 95.41%
% Remaining @ 2 hrs ([1]; buffer, 2 h, 100 ppm, pH 2.8): 96.49%
% Remaining @ 4 hrs ([1]; buffer, 4 h, 100 ppm, pH 2.8): 93.43%
% Remaining @ 6 hrs ([1]; buffer, 6 h, 100 ppm, pH 2.8): 93.85%

Structure (SMILES): Cc1nc2cccc(OCC(C)(C)C(=O)NCC(C)C)c2c(N)c1C(=O)O [Example 150, 4-amino-5-(3-(isobutylamino)-2,2-dimethyl-3-oxopropoxy)-2-methylquinoline-3-carboxylic Acid]
melting point: 176 to 179 °C

Structure (SMILES): Cc1nc2cccc(OCC(C)(C)NC(=O)C3CCOCC3)c2c(N)c1C(=O)O [Example 140, 4-amino-2-methyl-5-(2-methyl-2-(tetrahydro-2H-pyran-4-carboxamido)-propoxy)quinoline-3-carboxylic Acid]
melting point: 170 to 173 °C

Structure (SMILES): O=C(O)/C=C/c1ccc(O)c(O)c1 [caffeic acid]
% Remaining @ 1 hr ([1]; buffer, 1 h, 100 ppm, pH 2.8): 98.02%
% Remaining @ 2 hrs ([1]; buffer, 2 h, 100 ppm, pH 2.8): 99.54%
% Remaining @ 4 hrs ([1]; buffer, 4 h, 100 ppm, pH 2.8): 98.74%
% Remaining @ 6 hrs ([1]; buffer, 6 h, 100 ppm, pH 2.8): 95.55%

Structure (SMILES): COc1cc(C=CC(=O)O)cc(OC)c1O (stereo in doubt) [sinapinic acid]
% Remaining @ 1 hr [1, 2]: 100.00%
% Remaining @ 2 hrs [1, 2]: 99.98%
% Remaining @ 4 hrs [1, 2]: 100.12%
% Remaining @ 6 hrs [1, 2]: 98.52%

Structure (SMILES): O=c1ccc2ccc(O)c(O)c2o1 [daphnetin]
% Remaining @ 1 hr ([1]; buffer, 1 h, 100 ppm, pH 2.8): 99.13%
% Remaining @ 2 hrs ([1]; buffer, 2 h, 100 ppm, pH 2.8): 99.76%
% Remaining @ 4 hrs ([1]; buffer, 4 h, 100 ppm, pH 2.8): 98.13%

Second part, the molecule after the results:

% Remaining @ 1 hr ([1]; buffer, 1 h, 50 ppm, pH 2.8): 90.42%
% Remaining @ 2 hrs ([1]; buffer, 2 h, 50 ppm, pH 2.8): 75.92%
% Remaining @ 4 hrs ([1]; buffer, 4 h, 50 ppm, pH 2.8): 55.54%
% Remaining @ 6 hrs ([1]; buffer, 6 h, 50 ppm, pH 2.8): 41.50%
Structure (SMILES): C[C@@H]1O[C@@H](O[C@H]2[C@H](Oc3cc(O)c4c(c3)O[C@H](c3ccc(O)cc3)CC4=O)O[C@H](CO)[C@@H](O)[C@@H]2O)[C@H](O)[C@H](O)[C@H]1O [naringin]

% Remaining @ 1 hr ([1]; buffer, 1 h, 25 ppm, pH 2.8): 89.62%
% Remaining @ 2 hrs ([1]; buffer, 2 h, 25 ppm, pH 2.8): 80.75%
% Remaining @ 4 hrs ([1]; buffer, 4 h, 25 ppm, pH 2.8): 64.60%
% Remaining @ 6 hrs ([1]; buffer, 6 h, 25 ppm, pH 2.8): 50.64%
Structure (SMILES): O=C(CCc1ccc(O)cc1)c1c(O)cc(O)cc1O [phloretin]

% of compound degraded after 6 hr of irradiation ([1]; pH 2.8): about 80%
Structure (SMILES): COc1ccc2ncc(C(=O)O)c(N)c2c1 [Compound B]

% Remaining @ 1 hr ([1]; buffer, 1 h, 12.5 ppm, pH 2.8): 90.83%
% Remaining @ 2 hrs ([1]; buffer, 2 h, 12.5 ppm, pH 2.8): 82.75%
% Remaining @ 4 hrs ([1]; buffer, 4 h, 12.5 ppm, pH 2.8): 57.70%
% Remaining @ 6 hrs ([1]; buffer, 6 h, 12.5 ppm, pH 2.8): 24.54%
Structure (SMILES): COc1cc([C@@H]2CC(=O)c3c(O)cc(O)cc3O2)ccc1O [homoeriodictol, homoeriodictyol]

% Remaining @ 1 hr ([1]; buffer, 1 h, 50 ppm, pH 2.8): 91.42%
% Remaining @ 2 hrs ([1]; buffer, 2 h, 50 ppm, pH 2.8): 82.53%
% Remaining @ 4 hrs ([1]; buffer, 4 h, 50 ppm, pH 2.8): 66.95%
% Remaining @ 6 hrs ([1]; buffer, 6 h, 50 ppm, pH 2.8): 56.72%
Structure (SMILES): COc1ccc(CCC(=O)c2c(O)cc(O[C@@H]3O[C@H](CO)[C@@H](O)[C@H](O)[C@H]3O[C@@H]3O[C@@H](C)[C@H](O)[C@@H](O)[C@H]3O)cc2O)cc1O [neohesperidin dihydrochalcone]

% Remaining @ 4 hrs ([1]; buffer, 4 h, 100 ppm, pH 2.8): 100.07%
% Remaining @ 6 hrs ([1]; buffer, 6 h, 100 ppm, pH 2.8): 95.72%
Structure (SMILES): COc1cc2ccc(=O)oc2cc1O [scopoletin]
